Tests used:
[1] = molecular target: T1, human IDO (IDO1-expressing HEK293 cells) (Homo sapiens, UniProt P14902); experiment: Cell based kynurenine assay, IDO1-expressing HEK293 cell clones; conditions: IDO1-expressing HEK293 cells, 24 hours, geometric mean; read-out: HEK293 IDO1 Kynurenine GMean IC50 (μM) (Cellular Assay)
T1 construct: expressed in transfected cells
Outline: (§1)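 IC50 values come from nonlinear regression of kynurenine reduction in supernatants of human IDO1- or TDO-expressing HEK293 cells incubated 24 h with serially diluted compounds, normalised to cell and media-only controls containing 0.2% DMSO.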

[2] = molecular target: T2, human TDO (TDO-expressing HEK293 cells) (Homo sapiens, UniProt P48775); experiment: Cell based kynurenine assay, TDO-expressing HEK293 cell clones; conditions: TDO-expressing HEK293 cells, 24 hours, geometric mean; read-out: HEK293 TDO Kynurenine GMean IC50 (μM) (Cellular Assay)
T2 construct: expressed in transfected cells
T2 sequence (P48775 whole entry): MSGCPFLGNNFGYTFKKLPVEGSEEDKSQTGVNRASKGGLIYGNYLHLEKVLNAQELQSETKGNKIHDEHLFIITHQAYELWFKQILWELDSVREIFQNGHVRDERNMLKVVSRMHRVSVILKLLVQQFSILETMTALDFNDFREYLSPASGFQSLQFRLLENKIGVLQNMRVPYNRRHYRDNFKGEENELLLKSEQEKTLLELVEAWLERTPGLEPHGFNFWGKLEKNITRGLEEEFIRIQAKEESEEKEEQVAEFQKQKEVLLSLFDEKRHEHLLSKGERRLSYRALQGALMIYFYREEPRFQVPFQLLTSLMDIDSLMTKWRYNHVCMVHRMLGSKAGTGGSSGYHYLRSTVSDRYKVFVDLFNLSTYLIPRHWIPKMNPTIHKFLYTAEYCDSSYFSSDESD
Outline: as §1

[3] = molecular target: T3, Human Indoleamine 2,3-dioxygenase (IDO) (Homo sapiens, UniProt P14902); experiment: Human IDO enzymatic assay (kynurenine level); format: biochemical; conditions: 6 nM IDO, 10 μM L-Trp; geometric mean; read-out: IDO1 GMean: IC50 (μM) (Biochemical Assay)
T3 construct: His tag (N); made in house; host or cells: E. coli
T3 sequence (P14902 whole entry): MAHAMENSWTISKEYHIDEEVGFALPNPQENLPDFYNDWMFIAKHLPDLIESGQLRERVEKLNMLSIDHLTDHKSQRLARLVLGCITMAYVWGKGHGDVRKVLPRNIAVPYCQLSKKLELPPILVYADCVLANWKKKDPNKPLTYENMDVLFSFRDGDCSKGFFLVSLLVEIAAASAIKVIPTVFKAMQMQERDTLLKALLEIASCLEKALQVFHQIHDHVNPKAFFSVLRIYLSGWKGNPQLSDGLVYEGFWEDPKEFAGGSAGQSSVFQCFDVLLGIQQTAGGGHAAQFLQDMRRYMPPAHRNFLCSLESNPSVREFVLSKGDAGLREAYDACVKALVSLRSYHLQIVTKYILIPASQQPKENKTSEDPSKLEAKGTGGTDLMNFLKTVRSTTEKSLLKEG
Outline: (§2)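 Kynurenine formed is measured after TCA quench and 50 °C hydrolysis, with % inhibition against full-reaction and no-enzyme controls (5% DMSO). IDO: 6 nM enzyme, 10 μM L-Trp, 5 μM methylene blue, 20 min; TDO: 1 nM, 350 μM L-Trp, 0.4 μM methylene blue, 70 min; both pH 6.5, room temp, E. coli-expressed His-tagged.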

[4] = molecular target: T4, Human Tryptophan 2,3-dioxygenase (TDO) (Homo sapiens, UniProt P48775); experiment: Human TDO enzymatic assay (kynurenine level); format: biochemical; conditions: 1 nM TDO, 350 μM L-Trp; geometric mean; read-out: TDO GMean: IC50 (μM) (Biochemical Assay)
T4 construct: His tag (N); made in house; host or cells: E. coli
T4 sequence (P48775 whole entry): as the sequence (P48775 whole entry) above
Outline: as §2

T1 sequence (P14902 whole entry): as the sequence (P14902 whole entry) above

| IC50 [1] | IC50 [2] | IC50 [3] | IC50 [4] | SMILES |
| --- | --- | --- | --- | --- |
| 0.0001 to 10 µM | 0.0001 to 10 µM | 0.0001 to 10 µM | 0.0001 to 10 µM | CC(C)(C)OC(=O)N1CCC(C(F)(F)C(O)c2c3c(cc4cn[nH]c24)CC3)CC1 (stereo not shown) [Compound P-0490, tert-butyl 4-(2-(5,6-dihydro-1H-cyclobuta[f]indazol-7-yl)-1,1-difluoro-2-hydroxyethyl) piperidine-1-carboxylate] |
| 0.0001 to 10 µM | 0.0001 to 10 µM | 0.0001 to 10 µM | 0.0001 to 10 µM | CN1CCN(Cc2ccc(NC(=O)N3CCC(C(C)(C)C(O)c4cc(Cl)cc5cn[nH]c45)CC3)cc2)CC1 (stereo not shown) [Compound P-0491, 4-(1-(5-chloro-1H-indazol-7-yl)-1-hydroxy-2-methylpropan-2-yl)-N-(4-((4-methylpiperazin-1-yl)methyl)phenyl) piperidine-1-carboxamide] |
| 0.0001 to 10 µM | 0.0001 to 10 µM | 0.0001 to 10 µM | 0.0001 to 10 µM | CC(C)(C1CCN(C(=O)NCCN2CCCS2(=O)=O)CC1)C(O)c1cc(Cl)cc2cn[nH]c12 (stereo not shown) [Compound P-0492, 4-(1-(5-chloro-1H-indazol-7-yl)-1-hydroxy-2-methylpropan-2-yl)-N-(2-(1,1-dioxidoisothiazolidin-2-yl)ethyl)piperidine-1-carboxamide] |
| 0.0001 to 10 µM | 0.0001 to 10 µM | 0.0001 to 10 µM | 0.0001 to 10 µM | CC(C)(C1CCN(C(=O)NCCNS(C)(=O)=O)CC1)C(O)c1cc(Cl)cc2cn[nH]c12 (stereo not shown) [Compound P-0493, 4-(1-(5-chloro-1H-indazol-7-yl)-1-hydroxy-2-methylpropan-2-yl)-N-(2-(methylsulfonamido)ethyl)piperidine-1-carboxamide] |

The remaining lines, values behind:

| SMILES | IC50 [1] | IC50 [2] | IC50 [3] | IC50 [4] |
| --- | --- | --- | --- | --- |
| O=C(Nc1ccc(Cl)cc1)N1CCC(C(F)(F)C(O)c2cc(Cl)cc3cn[nH]c23)CC1 (stereo not shown) [Compound P-0484, 4-(2-(5-chloro-1H-indazol-7-yl)-1,1-difluoro-2-hydroxyethyl)-N-(4-chlorophenyl) piperidine-1-carboxamide] | 0.0001 to 10 µM | 0.0001 to 10 µM | 0.0001 to 10 µM | 0.0001 to 10 µM |
| O=C(CN1CCS(=O)(=O)CC1)N1CCC(C(F)(F)C(O)c2cc(Cl)cc3cn[nH]c23)CC1 (stereo not shown) [Compound P-0485, 1-(4-(2-(5-chloro-1H-indazol-7-yl)-1,1-difluoro-2-hydroxyethyl)piperidin-1-yl)-2-(1,1-dioxidothiomorpholino) ethan-1-one] | 0.0001 to 10 µM | > 10 µM | 0.0001 to 10 µM | 0.0001 to 10 µM |
| CC(C)(C1CCN(C(=O)CN2CCCS2(=O)=O)CC1)C(O)c1cc(Cl)cc2cn[nH]c12 (stereo not shown) [Compound P-0486, 1-(4-(1-(5-chloro-1H-indazol-7-yl)-1-hydroxy-2-methylpropan-2-yl)piperidin-1-yl)-2-(1,1-dioxidoisothiazolidin-2-yl)ethan-1-one] | 0.0001 to 10 µM | 0.0001 to 10 µM | 0.0001 to 10 µM | 0.0001 to 10 µM |
| CC(C)(C1CCN(C(=O)CN2CCS(=O)(=O)CC2)CC1)C(O)c1cc(Cl)cc2cn[nH]c12 (stereo not shown) [Compound P-0487, 1-(4-(1-(5-chloro-1H-indazol-7-yl)-1-hydroxy-2-methylpropan-2-yl)piperidin-1-yl)-2-(1,1-dioxidothiomorpholino) ethan-1-one] | 0.0001 to 10 µM | 0.0001 to 10 µM | 0.0001 to 10 µM | 0.0001 to 10 µM |
| O=C(Nc1cccc(Cl)c1)N1CCC(C(F)(F)C(O)c2cc(Cl)cc3cn[nH]c23)CC1 (stereo not shown) [Compound P-0488, 4-(2-(5-chloro-1H-indazol-7-yl)-1,1-difluoro-2-hydroxyethyl)-N-(3-chlorophenyl) piperidine-1-carboxamide] | 0.0001 to 10 µM | 0.0001 to 10 µM | 0.0001 to 10 µM | 0.0001 to 10 µM |
| O=C(CN1CCCS1(=O)=O)N1CCC(C(F)(F)C(O)c2cc(Cl)cc3cn[nH]c23)CC1 (stereo not shown) [Compound P-0489, 1-(4-(2-(5-chloro-1H-indazol-7-yl)-1,1-difluoro-2-hydroxyethyl)piperidin-1-yl)-2-(1,1-dioxidoisothiazolidin-2-yl)ethan-1-one] | 0.0001 to 10 µM | 0.0001 to 10 µM | 0.0001 to 10 µM | 0.0001 to 10 µM |
